Values joined by “and” are separate entries in the source; they are usually repeats but may differ in a detail not shown here. Equal entries are not always repeated. Where two headings read alike, the source gives them in different places.
Assays:
[1] = reported data, no reference given; cited from earlier work
[2] = pH measurement of probes in the HTRF assay buffer; type: physicochemical; conditions: for pH value of probe in the buffer: 30 mM probe; for pH value of the buffer with BZA: Figure 6C
[3] = solubility observed in the HTRF screening; type: physicochemical; conditions: at 10 mM in the HTRF assay
ST2 (Homo sapiens) = ST2 (Homo sapiens) (UniProt Q01638); experiment: BLI; conditions: cited from earlier work
[4] = target: T1, recombinant human ST2-Fc-Histag (human, UniProt Q01638 19-328); experiment: AlphaScreen or HTRF
T1 sequence (looked up): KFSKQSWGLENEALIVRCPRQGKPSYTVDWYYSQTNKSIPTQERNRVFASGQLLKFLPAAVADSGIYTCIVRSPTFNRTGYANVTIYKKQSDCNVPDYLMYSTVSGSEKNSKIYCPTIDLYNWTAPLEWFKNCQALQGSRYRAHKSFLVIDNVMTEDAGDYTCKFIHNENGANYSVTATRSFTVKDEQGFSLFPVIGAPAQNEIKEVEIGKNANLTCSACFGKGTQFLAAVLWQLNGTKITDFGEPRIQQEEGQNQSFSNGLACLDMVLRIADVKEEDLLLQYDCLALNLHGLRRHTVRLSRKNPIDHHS

[5] = target: T1, recombinant human ST2-Fc-Histag; experiment: AlphaScreen or HTRF; remark: listed apart in the source

NCc1cccnc1 [AMP, 3-(aminomethyl)pyridine]
pKa [1]: 8.34 | pH value of probe in the buffer [2]: 9.4

N=C(N)c1ccccc1 [BZA, benzamidine]
pH value of the buffer with BZA ([2]; 0.12 mM BZA): 7.5 | pH value of the buffer with BZA ([2]; 3.3 mM BZA): 10.1 | pH value of the buffer with BZA ([2]; 30 mM BZA): 10.8 | pH value of probe in the buffer [2]: 10.5

O=C(O)c1ccc2ccccc2c1O [Compound 1]
solubility [3]: poor solubility

O=C(O)c1cccnc1 [NA, nicotinic acid]
pH value of probe in the buffer [2]: 5.1

NC(=O)c1cccnc1 [NAM, nicotinamide]
pH value of probe in the buffer [2]: 7.2

O=C(O)c1ccccc1O [SA, salicylic acid]
pH value of probe in the buffer [2]: 4.1

IL33 (from UniProt O95760)
Kd (ST2 (Homo sapiens)): 2.23 nM

B1: recombinant human IL33, un-biotinylated (ligand)
chain: SITGISPITEYLASLSTYNDQSITFALEDESYEIYVEDLKKDEKKDKVLLSYYESQHPSNESGDGVDGKMLMVTLSPTKDFWLHANNKEHSVELHKCEKPLPDQAFFVLHNMHSNCVSFECKTDPGVFIGVKDNHLALIKVDSSENLCTENILFKLSET
IC50 [4]: 2.25 ± 0.98 nM | IC50 of one of two independent measurements [4]: 2.94 nM and 1.5 nM | IC50 [5]: 3.7 ± 0.29 nM | IC50 of one of two independent measurements [5]: 3.49 nM and 3.9 nM
